Assay results as given in patent US9242978B2, “Phenylacetamide compound and pharmaceutical containing same” (KOWA COMPANY, LTD., priority 2012, dated 2016).
Like-named read-outs stand apart in the source and are kept apart here.

What was measured:
[1] = Evaluation of organ selectivity (non-binding drug concentration in liver and pancreas after oral administration); type: in vivo, normal mice (C57BL/6j mice); settings: mice, 150 minutes after administration
[2] = test system: normal mice; settings: low dose; non-patent document 11; cited from earlier work
[3] = Evaluation of organ selectivity (non-binding drug concentration in liver and pancreas after oral administration); type: in vivo, normal mice (C57BL/6j mice); settings: mice, 150 minutes after administration; for concentration at 150 min: C57BL/6j, mouse, dose 30 mg/kg
Method: A test compound suspended in 10% (v/v) Gelucire 44/14 (GATTEFOSSE) was orally administered to normal mice (C57BL/6j mice, CLEA Japan, Inc.). The percentages of drugs that had not bound to proteins in the liver and the pancreas, which had been obtained by the in vitro test, were […] the total concentrations of the drugs in the liver and the pancreas obtained 150 minutes after administration of the drugs, so as to calculate the non-binding concentration of the drug in each case. The ratio of the non-binding concentration of the drug in the […] was calculated, and thus, liver selectivity was evaluated. As a comparative compound, PSN-GK1 described in non-patent document 11 (corresponding to Example 94 of patent document 2) was produced according to the method described in patent document 2, and the produced comparative compound was then evaluated in the same manner as described above (in the table, the comparative compound is indicated as PSN-GK1).

[4] = test system: normal mice (C57BL/6j mice); assay: Oral glucose tolerance test with normal mice after single administration of test compound; type: in vivo; settings: 30 mg/kg oral, 2 g/kg glucose oral 30 minutes later, FIG. 1
Method: The test compound (Example 5) (30 mg/kg) suspended in 10%(v/v) Gelucire44/14 (GATTEFOSSE) was orally administered to normal mice (C57BL/6j mice, CLEA Japan, Inc.). Thirty minutes later, 2 g/kg glucose was orally administered to the mice. The blood glucose level was measured using an automatic blood glucose level measurement apparatus (Medisafe, TERUMO), before administration of the test compound, 25 minutes after administration of the test compound, and 15, 30, 60, and 120 minutes after administration of glucose. Thus, the action of the test compound to lower blood glucose level was evaluated.

[5] = biological target: T1, GST-GK derived from human liver GK (Homo sapiens, UniProt P35557); assay: In vitro GK activating action measurement test; type: biochemical; settings: 10 min; test compound 1 μmol/L, glucose 2.5 mmol/L, 25° C.; read-out: GK activation rate (%)
T1 construct: made in house; host or cells: Escherichia coli DH5α
T1 sequence (P35557 1-466 isoform P35557-2): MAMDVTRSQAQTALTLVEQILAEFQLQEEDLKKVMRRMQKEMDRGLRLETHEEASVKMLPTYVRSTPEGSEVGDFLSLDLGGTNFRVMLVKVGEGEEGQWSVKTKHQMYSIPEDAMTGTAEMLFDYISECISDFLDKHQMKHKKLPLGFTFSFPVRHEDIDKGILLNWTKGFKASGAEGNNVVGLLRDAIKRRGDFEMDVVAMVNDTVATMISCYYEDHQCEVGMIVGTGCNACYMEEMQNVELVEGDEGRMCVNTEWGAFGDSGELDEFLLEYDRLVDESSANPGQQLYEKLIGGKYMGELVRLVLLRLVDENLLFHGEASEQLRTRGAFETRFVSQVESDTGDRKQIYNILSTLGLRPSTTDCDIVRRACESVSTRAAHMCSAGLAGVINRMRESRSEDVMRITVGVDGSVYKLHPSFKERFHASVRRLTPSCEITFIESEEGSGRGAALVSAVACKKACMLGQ
Source text: cDNA (GenBank Accession No. NM_033507, human glucokinase, variant 2) encoding human liver-type GK polypeptide was cloned by performing a polymerase chain reaction (hereinafter referred to as “PCR”) using a human liver cDNA library (Human liver QUICK-Clone cDNA, TAKARA BIO INC.), and the thus cloned cDNA was then introduced into an expression vector (pGEX-3X, GE Healthcare Japan) for glutathione S transferase (hereinafter referred to as GST) fusion proteins. The resulting vector was introduced into Escherichia coli (Competent high DH5α, Toyobo Co., Ltd.), and the transformed Escherichia coli was then cultured at 37° C. Thereafter, Isopropyl β-D-1-thiogalactopyranoside (final concentration: 1 mmol/L, Sigma Aldrich Japan) was added to the culture, and the obtained mixture was then cultured at 30° C. for 3 hours. Thereafter, a cell mass was recovered. The recovered cell mass was subjected to freezing-and-thawing, and the resulting cell mass was then suspended in Triton-X that had been added in a final concentration of 1% to a phosphate buffer, followed by disintegration with an ultrasonic disintegrator. The homogenate was centrifuged at 33,200 rpm at 4° C. for 1 hour. Thereafter, the supernatant was recovered, and a GST-GK fusion protein was then purified using a glutathione column (GSTrap FF, GE Healthcare Japan). The obtained GST-GK fusion protein was divided into some portions each having a small volume, and the thus divided proteins were then preserved at −80° C.
A GK assay was carried out at 25° C. at a final incubation volume of 100 μL using a flat-bottom 96-well assay plate. An assay buffer comprised 25 mmol/L Hepes buffer (pH 7.1), 25 mmol/L KCl, 2.5 mmol/L or 10 mmol/L D-glucose, 5 mmol/L ATP, 1 mmol/L nicotinamide adenine dinucleotide phosphate (abbreviated as NADP), 2 mmol/L MgCl2, 1 mmol/L dithiothreitol (DTT), 2 units/mL glucose-6 phosphate dehydrogenase (G6PDH), and 1 μg/mL GST-GK derived from human liver GK. ATP, G6PDH, and NADP were purchased from Roche Diagnostics. […] The thus mixed solution was preincubated in an incubator in which the temperature was controlled at 25° C. for 15 minutes. Subsequently, the reaction was initiated by adding 10 μL of the GST-GK solution to the reaction mixture, resulting in a final concentration of 0.1 μg/mL. After initiation of the reaction, an increase in the optical concentration at 340 nm (OD340) was monitored with a microplate spectrophotometer (Varsamax, Molecular Devices Japan K. K.) every 10 seconds over an incubation period of 10 minutes. An inclination of the OD340 increase was defined as raw data. The GK activating rate was indicated as a numerical value obtained from the expression: (Inclination of OD340 increase by addition of the test compound)/(inclination of OD340 increase without addition of the test compound). The results of the GK activating rate obtained at a test compound concentration of 1 μmol/L under the condition of a glucose concentration of 2.5 mmol/L are shown in the following table 2.

[6] = test system: normal mice (C57BL/6j mice); assay: Transition in blood glucose levels after single administration of test compound to normal mice; type: in vivo; settings: 30 mg/kg oral, 1, 2, 4 and 6 hours after administration, FIG. 2
Method: A test compound (30 mg/kg, Example 5) suspended in 10% (v/v) Gelucire 44/14 (GATTEFOSSE) was orally administered to normal mice (C57BL/6j mice, CLEA Japan, Inc.). The blood glucose level was measured using an automatic blood glucose level measurement apparatus (Medisafe, TERUMO), before administration of the test compound, and 1, 2, 4, and 6 hours after administration of the test compound. Thus, the hypoglycemic action of the test compound was evaluated.

| Compound | Selectivity Liver/pancreas ([1]; dose 1 mg/kg) | Selectivity Liver/pancreas ([1]; dose 10 mg/kg) | hypoglycemic action on normal mice [2] | Non-binding concentration (ng/mL) Liver ([3]; dose 1 mg/kg) [ng/mL] | Non-binding concentration (ng/mL) Pancreas ([3]; dose 1 mg/kg) [ng/mL] | Non-binding concentration (ng/mL) Liver ([3]; dose 3 mg/kg) [ng/mL] | Non-binding concentration (ng/mL) Pancreas ([3]; dose 3 mg/kg) [ng/mL] | Selectivity Liver/pancreas ([3]; dose 3 mg/kg) | Non-binding concentration (ng/mL) Liver ([3]; dose 10 mg/kg) [ng/mL] | Non-binding concentration (ng/mL) Pancreas ([3]; dose 10 mg/kg) [ng/mL] | selectivity ratio at 150 min ([1]; C57BL/6j, mouse, liver and pancreas, dose 30 mg/kg) | blood glucose level in oral glucose tolerance test versus solvent alone [4] | activity at 1 µM [5] [%] | blood glucose level after single administration versus solvent alone [6] | concentration at 150 min ([3]; liver, read-out: Non-binding concentration (ng/mL) Liver) [ng/mL] | concentration at 150 min ([3]; pancreas, read-out: Non-binding concentration (ng/mL) Pancreas) [ng/mL] |
| --- | --- | --- | --- | --- | --- | --- | --- | --- | --- | --- | --- | --- | --- | --- | --- | --- |
| O=C(Nc1ncc(F)s1)[C@H](CC1CCOCC1)c1ccc(S(=O)(=O)C2CC2)cc1 [PSN-GK1, reference compound] | 1.0 | 1.2 | has a hypoglycemic action on normal mice | 0.56 | 0.58 | 1.4 | 1.7 | 0.8 | 7.4 | 6.0 | – | – | – | – | – | – |
| CCNC(=O)N1CC[C@H](C[C@@H](C(=O)Nc2ncc(F)s2)c2ccc(S(=O)(=O)C3CC3)cc2)C1 [Example 5, (S)-3-((R)-2-(4-(cyclopropylsulfonyl)phenyl)-3-((5-fluorothiazol-2-yl)amino)-3-oxopropyl)-N-ethylpyrrolidine-1-carboxamide] | – | – | – | – | – | – | – | – | – | – | 27 | lower than that of the mice orally administered with the solvent alone | 561 | almost equal to the blood glucose level of the mice orally administered with the solvent alone | 47 | 1.8 |
